Data reported in paper PMC12397910.
Values belong to the molecule of their own block, whether it stands above or below them.

How the values were obtained:
[1] = tested on: Bcl3 promoter WT (30-nt, G-rich positive strand) (DNA, G4) CGGGGGGGCCGGGGGCGGGGAGGCGGGCGG; assay: ThT fluorescence turn-on (490 nm); details: 100 mM K+ (KCl); 10 mM Tris-HCl pH 7.5, 25 °C; 0.5 μM ThT, 1 μM DNA
[2] = tested on: Bcl3 G6A (DNA, G4) CGGGGGGGCCGGAGGCGGGGAGGCGGGCGG; assay: CD melting at 264 nm; details: 100 mM K+ (KCl); 10 mM Tris-HCl pH 7.5; 20 μM ligand, ligand:G4 2:1; stabilised
[3] = tested on: Bcl3 G6/8A (DNA, G4) CGGGGGGGCCGGAGGCGGAGAGGCGGGCGG; assay: CD melting at 264 nm; details: 100 mM K+ (KCl); 10 mM Tris-HCl pH 7.5; 20 μM ligand, ligand:G4 2:1; stabilised
[4] = tested on: Bcl3 GI/IVA (DNA, G4) CGGAAAGGCCGGGGGCGGGGAGGCAAACGG; assay: CD melting at 264 nm; details: 100 mM K+ (KCl); 10 mM Tris-HCl pH 7.5; 20 μM ligand, ligand:G4 2:1; stabilised
[5] = tested on: dsBcl3 GI/IVA (DNA, duplex) CAGGAAACCCCTGGGGCGTACGGGTGGCCCCGGAAAGGCCGGGGGCGGGGAGGCAAACGGCCGGCACCGCCCCGGCCGACAAAAGTCCCT/AGGGACTTTTGTCGGCCGGGGCGGTGCCGGCCGTTTGCCTCCCCGCCCCCGGCCTTTCCGGGGCCACCCGTACGCCCCAGGGGTTTCCTG; assay: NMM fluorescence turn-on (610 nm); details: 1 mM K+ (KCl); 10% PEG8000; also 100 mM KCl without PEG; 25 °C; 1 μM NMM, 2 μM DNA; no peak
[6] = tested on: dsBcl3 WT (90-bp dsBcl3-G4) (DNA, G4) CAGGAAACCCCTGGGGCGTACGGGTGGCCCCGGGGGGGCCGGGGGCGGGGAGGCGGGCGGCCGGCACCGCCCCGGCCGACAAAAGTCCCT/AGGGACTTTTGTCGGCCGGGGCGGTGCCGGCCGCCCGCCTCCCCGCCCCCGGCCCCCCCGGGGCCACCCGTACGCCCCAGGGGTTTCCTG; assay: NMM fluorescence turn-on (610 nm); details: 1 mM K+ (KCl); 10% PEG8000; also 100 mM KCl without PEG; 25 °C; 1 μM NMM, 2 μM DNA
[7] = tested on: dsBcl3 G6/8A (DNA, duplex) CAGGAAACCCCTGGGGCGTACGGGTGGCCCCGGGGGGGCCGGAGGCGGAGAGGCGGGCGGCCGGCACCGCCCCGGCCGACAAAAGTCCCT/AGGGACTTTTGTCGGCCGGGGCGGTGCCGGCCGCCCGCCTCTCCGCCTCCGGCCCCCCCGGGGCCACCCGTACGCCCCAGGGGTTTCCTG; assay: NMM fluorescence turn-on (610 nm); details: 1 mM K+ (KCl); 10% PEG8000; also 100 mM KCl without PEG; 25 °C; 1 μM NMM, 2 μM DNA; no peak
[8] = tested on: Bcl3 GI/IVA (DNA, G4) CGGAAAGGCCGGGGGCGGGGAGGCAAACGG; assay: CD melting at 284 nm; details: 100 mM K+ (KCl); 10 mM Tris-HCl pH 7.5; 20 μM ligand, ligand:G4 2:1; stabilised
[9] = tested on: Bcl3 G6/8A (DNA, G4) CGGGGGGGCCGGAGGCGGAGAGGCGGGCGG; assay: CD melting at 284 nm; details: 100 mM K+ (KCl); 10 mM Tris-HCl pH 7.5; 20 μM ligand, ligand:G4 2:1; stabilised
[10] = tested on: Bcl3 G6A (DNA, G4) CGGGGGGGCCGGAGGCGGGGAGGCGGGCGG; assay: CD melting at 284 nm; details: 100 mM K+ (KCl); 10 mM Tris-HCl pH 7.5; 20 μM ligand, ligand:G4 2:1; stabilised
SP1 [11] = molecular target: T1, SP1 (UniProt P08047 1-785); assay: EMSA; annealed in 100 mM KCl; Hill 4.42; EMSA: 10 mM HEPES-NaOH pH 7.3, 50 mM KCl, 5 mM MgCl2, 0.5 mM DTT, 5% glycerol, 0.5 mg/mL BSA, 1 h, gel at 4 C; BLI: PBS, room temperature; oligos annealed in 10 mM Tris-HCl pH 7.5 +/- 100 mM KCl; details: protein: commercial; label: 5' biotin (BLI); G4, parallel, intra- and intermolecular
SP1 [12] = molecular target: T1, SP1; assay: BLI; annealed in 100 mM KCl; local 1:1 fit at 457 nM SP1; not truly 1:1; EMSA: 10 mM HEPES-NaOH pH 7.3, 50 mM KCl, 5 mM MgCl2, 0.5 mM DTT, 5% glycerol, 0.5 mg/mL BSA, 1 h, gel at 4 C; BLI: PBS, room temperature; oligos annealed in 10 mM Tris-HCl pH 7.5 +/- 100 mM KCl; details: protein: commercial; label: 5' biotin (BLI); G4, parallel, intra- and intermolecular
SP1 [13] = molecular target: T1, SP1; assay: EMSA; annealed with KCl; Kd only in Fig S13B; EMSA: 10 mM HEPES-NaOH pH 7.3, 50 mM KCl, 5 mM MgCl2, 0.5 mM DTT, 5% glycerol, 0.5 mg/mL BSA, 1 h, gel at 4 C; BLI: PBS, room temperature; oligos annealed in 10 mM Tris-HCl pH 7.5 +/- 100 mM KCl; details: protein: commercial; G4
SP1 [14] = molecular target: T1, SP1; assay: EMSA; annealed in KCl, purified Inter 1; Hill 3.53; EMSA: 10 mM HEPES-NaOH pH 7.3, 50 mM KCl, 5 mM MgCl2, 0.5 mM DTT, 5% glycerol, 0.5 mg/mL BSA, 1 h, gel at 4 C; BLI: PBS, room temperature; oligos annealed in 10 mM Tris-HCl pH 7.5 +/- 100 mM KCl; details: protein: commercial
SP1 [15] = molecular target: T1, SP1; assay: EMSA; annealed without KCl; EMSA: 10 mM HEPES-NaOH pH 7.3, 50 mM KCl, 5 mM MgCl2, 0.5 mM DTT, 5% glycerol, 0.5 mg/mL BSA, 1 h, gel at 4 C; BLI: PBS, room temperature; oligos annealed in 10 mM Tris-HCl pH 7.5 +/- 100 mM KCl; details: protein: commercial; single strand

T1 sequence (P08047 whole entry): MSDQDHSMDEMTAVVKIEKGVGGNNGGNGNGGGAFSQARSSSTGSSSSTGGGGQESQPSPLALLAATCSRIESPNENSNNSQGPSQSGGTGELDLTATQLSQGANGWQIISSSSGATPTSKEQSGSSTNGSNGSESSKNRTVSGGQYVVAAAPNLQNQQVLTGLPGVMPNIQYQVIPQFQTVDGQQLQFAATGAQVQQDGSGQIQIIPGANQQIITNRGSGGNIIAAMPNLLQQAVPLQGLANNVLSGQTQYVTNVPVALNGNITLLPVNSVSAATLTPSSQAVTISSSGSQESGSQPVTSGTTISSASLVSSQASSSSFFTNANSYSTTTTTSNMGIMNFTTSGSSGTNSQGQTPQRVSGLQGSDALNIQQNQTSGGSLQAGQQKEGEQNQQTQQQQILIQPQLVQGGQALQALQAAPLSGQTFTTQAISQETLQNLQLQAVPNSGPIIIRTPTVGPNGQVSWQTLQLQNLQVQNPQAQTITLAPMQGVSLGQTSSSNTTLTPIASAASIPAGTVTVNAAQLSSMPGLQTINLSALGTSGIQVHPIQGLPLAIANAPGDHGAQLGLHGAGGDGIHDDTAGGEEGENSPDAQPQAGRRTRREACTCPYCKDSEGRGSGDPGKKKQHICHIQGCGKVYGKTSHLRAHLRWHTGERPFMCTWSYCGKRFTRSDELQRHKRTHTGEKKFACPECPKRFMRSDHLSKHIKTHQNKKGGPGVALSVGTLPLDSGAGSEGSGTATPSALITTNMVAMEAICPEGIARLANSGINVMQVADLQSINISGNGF

binding [1]: yes
Molecule: Cc1ccc2c(c1)sc(-c1ccc(N(C)C)cc1)[n+]2C

binding [2]: yes | binding [3]: yes | binding [4]: yes
Molecule: NCCOc1cc(C(=O)Nc2cc(OCCN)c3ccccc3n2)nc(C(=O)Nc2cc(OCCN)c3ccccc3n2)c1

binding [5]: no | binding [6]: yes | binding [7]: no
Molecule: CCc1c(C)c2cc3nc(cc4nc(cc5c(CC)c(C)c(cc1[nH]2)n5C)C(C)=C4CCC(=O)O)C(CCC(=O)O)=C3C

binding [8]: yes | binding [9]: yes | binding [10]: yes
Molecule: C[n+]1ccc(-c2c3nc(c(-c4cc[n+](C)cc4)c4ccc([nH]4)c(-c4cc[n+](C)cc4)c4nc(c(-c5cc[n+](C)cc5)c5ccc2[nH]5)C=C4)C=C3)cc1

Molecule: GGGGGCCGGGGGCGGGGAGGCGGG (structured_DNA) [Bcl3 WT 24-nt, annealed with KCl (G4)]
Kd (SP1 [11]): 19.1 nM | Kd (SP1 [12]): 2.36 nM

Molecule: GGGUCCGGGCCGGGUGGG (structured_RNA) [G4 RNA (KCl)]
binding result (SP1 [13]): binds

Molecule: AGAGACCGGGGGCGGGGAGACGAG (structured_DNA) [PCNG4 Inter 1, annealed with KCl]
Kd (SP1 [14]): 24.5 nM

Molecule: GGGUCCGGGCCGGGUGGG (ssRNA) [G4 RNA annealed without KCl]
binding result (SP1 [15]): binds
